Measurements reported in publication PMC11478334, “Quaternized Curcumin Derivative—Synthesis, Physicochemical Characteristics, and Photocytotoxicity, Including Antibacterial Activity after Irradiation with Blue Light” (Molecules, 2024).

How the values were obtained:
[1] = Singlet oxygen generation quantum yields, indirect method with DPBF or TTF; type: physicochemical
Experimental: Singlet oxygen generation quantum yield assessment constitutes a crucial measurement for the prospective photosensitizers applied in photodynamic therapy. For the singlet oxygen generation study, the indirect method was chosen with two different singlet oxygen quenchers—1,3-diphenylisobenzofuran (DPBF) and tetrathiafulvalene (TTF). Due to the partial overlapping of the DPBF band with the studied compounds’ bands in absorption spectra, a singlet oxygen formation assessment was also performed with TTF as a chemical singlet oxygen scavenger. The values obtained for new curcuminoids 2 and 3 were referenced to curcumin and ZnPc.
Singlet oxygen quantum yield measurements for 2, 3, and curcumin were assessed in dimethyl sulfoxide (DMSO; Fisher, Longborough, UK) and N,N-dimethylformamide (DMF; Fisher) at ambient temperature according to the comparative method protocols described previously. The method involves using chemical quenchers of singlet oxygen, 1,3-diphenylisobenzofuran (DPBF; Merck, Steinheim, Germany), tetrathiafulvalene (TTF; Aldrich, Steinheim, Germany), and an unsubstituted zinc(II) phthalocyanine (ZnPc; Aldrich) as a reference compound. The mixtures of curcumins and DPBF or TTF were irradiated with light adjusted to the maximum absorbance wavelength through the M250 monochromator (Optel, Opole, Poland). The changes in spectra under the irradiation were recorded with an OceanOptics Flame spectrophotometer equipped with a DT-MINI-2-GS light source. The singlet oxygen quantum yields were calculated using the previously presented equation [39, 73, 74, 75].

[2] = UV-vis absorption spectra (spectral properties); type: physicochemical
Source text: In the UV–vis spectra of the studied curcumin derivatives 2 and 3, typical absorption bands in the 350–550 nm range were noted (Figure 7). The absorption maxima of 2 and its quaternized derivative 3 were located close to 500 nm in both DMSO and DMF (for 2, λmax 496 nm in DMF and 502 nm in DMSO; for 3, λmax 489 nm in DMF and 495 nm in DMSO), whereas for the unsubstituted curcumin, the absorption maximum was located at 430 nm in DMF and 436 nm in DMSO. This implies that the presence of the BF2 moiety induces a strong bathochromic shift, as reported before. Further conversion of non-ionic 2-(morpholin-4-yl)ethoxy substituents present in 2 into quaternary ammonium cations present in 3 2-(N-methylmorpholinium)ethoxy groups induced a slight […] hypsochromic shift in both solvents. The strong absorption band originates mainly from π-π* electronic transition. To a lesser extent, such peaks come from the n-π* transition, although the importance of this crossing remains unclear.

[3] = Aggregation studies by UV-vis serial dilution; type: physicochemical; settings: in DMF
Experimental: The aggregation properties of the studied compounds were evaluated using statistical analysis of the UV–vis absorption spectra during serial dilution. […] This can be associated with the presence of a positive charge that prevents aggregation due to the repulsion of the same charges. […] According to the literature, DMSO can permeate into curcumin clusters and stabilize the non-aggregated molecules due to solvation.
The aggregation studies were performed at ambient temperature. Known amounts of 2, 3, and curcumin as a reference in volumetric flasks were dissolved in DMSO and DMF and left to stir overnight. Then, the solutions were diluted appropriately to achieve concentrations in the range between 1.5 × 10^−6 mol/dm^3 and 5.5 × 10^−5 mol/dm^3. The samples were then moved into quartz cuvettes (l = 10 mm, Hellma, Müllheim, Germany), and their spectra were recorded using a Shimadzu U-1900 spectrophotometer (Shimadzu, Kyoto, Japan). The recorded spectra and numerical data were then used for the determination of the dependence between the maximum peak absorption and the sample concentration according to the A = f(c) function, used further for statistical verification of the Lambert–Beer law.

Aliivibrio fischeri = test: Microtox acute toxicity test; type: cell-based; settings: for acute toxicity / ecotoxicity verdict: tested at 1, 10 and 100 µM
Source text: All studied compounds were subjected to a Microtox acute toxicity test. The test is based on bioluminescent Aliivibrio fischeri bacteria, which are very sensitive to the presence of toxic substances. Changes in the toxicity of the environment surrounding the bacterium influence its respiratory processes and translate into the emitted bioluminescence intensity. Therefore, in contact with a toxic substance at a specific concentration, a linear decrease in luminescence is observed. Dimethylsulfoxide was used as a solubilizer of studied compounds in amounts not exceeding 1% v/v. To determine the effect of the solvent alone, 1% DMSO solution in water was also tested.
The acute toxicity of the tested curcumionoids was investigated on a Modern Water Microtox Model 500 apparatus equipped with Modern Water MicrotoxOmni 4.2 software, according to the 81.9% screening test procedure provided by the manufacturer (Modern Water, London, UK). All the reagents and solutions (Microtox Acute Reagent, Microtox Diluent, and Microtox Osmotic Adjusting Solution) were purchased from Tigret (Warsaw, Poland). Solutions of the tested compounds were prepared using DMSO and deionized water. […] Each compound was tested at three final concentrations (1 µM, 10 µM, and 100 µM) and at two time points: 5 min and 15 min. The change in the bacterial bioluminescence was monitored after the addition of the sample solution and compared to the negative control.

[4] = Photodecomposition quantum yields (photostability under visible light); type: physicochemical; settings: for 10^−5 Φp (photodecomposition quantum yield): visible light over 450 nm; for ΦP (photodecomposition quantum yield) / calculated photodecomposition quantum yields, level: visible light λ ≥ 450 nm; for calculated photodecomposition quantum yields, level: solvent not stated
Source text: The absorption spectra of the studied curcumin derivatives 2 and 3 were monitored during the irradiation and compared with curcumin and zinc(II) phthalocyanine (ZnPc) as references (Figure 8). Under visible light irradiation (λ ≥ 450 nm), curcumin derivatives 2 and 3 only slightly decomposed. The calculated quantum yields were at the level of […]. […] Considering the obtained results, the morpholinoethyl and BF2 moieties tend to stabilize the curcumin core and prevent its photodecomposition. Partial reduction in light absorption (expressed by ε values) has also been noted for other photosensitizers subjected to the quaternization when 2-(morpholin-4-yl)ethoxy substituents were transformed into 2-(N-methylmorpholinium)ethoxy ones.
The photostability measurements were conducted in DMSO and DMF at ambient temperature under aerobic conditions according to the previously described method. A 150 W xenon lamp (Optel, Opole, Poland) was utilized as a light source. In order to separate the visible light (>450 nm), the HCC-16 cutting filter was used. The spectral changes under the irradiation were recorded with an OceanOptics Flame spectrophotometer equipped with a DT-MINI-2-GS light source (OceanOptics, Dunedin, FL, USA). The photodegradation quantum yields were then calculated using the previously presented equation [39, 73, 74, 76].

Molecule	singlet oxygen quantum yield ([1]; DPBF quencher, DMF)	singlet oxygen quantum yield ([1]; DPBF quencher, DMSO)	singlet oxygen quantum yield ([1]; TTF quencher, DMF)	singlet oxygen quantum yield ([1]; TTF quencher, DMSO)	absorption maximum λmax ([2]; in DMF) [nm]	absorption maximum λmax ([2]; in DMSO) [nm]	aggregation [3]	decrease in A. fischeri bioluminescence (Aliivibrio fischeri; 100 µM) [%]	effect on A. fischeri bioluminescence (Aliivibrio fischeri; lower concentrations (below 100 µM))	10^−5 Φp (photodecomposition quantum yield) ([4]; DMF)	ΦP (photodecomposition quantum yield) ([4]; DMF)	10^−5 Φp (photodecomposition quantum yield) ([4]; DMSO)	ΦP (photodecomposition quantum yield) ([4]; DMSO)	calculated photodecomposition quantum yields, level [4]	singlet oxygen generation ΦΔ, reaching up to ([1]; TTF used, solvent not stated)	decrease in A. fischeri bioluminescence (Aliivibrio fischeri; 10 µM, after 5 min exposure) [%]	acute toxicity / ecotoxicity verdict (Aliivibrio fischeri)	singlet oxygen generation ΦΔ, estimated ([1]; natural curcumin, solvent not stated)	decrease in A. fischeri bioluminescence (Aliivibrio fischeri; 1 µM) [%]	decrease in A. fischeri bioluminescence (Aliivibrio fischeri; 10 µM) [%]
F[B-]1(F)OC(/C=C/c2ccc(OCCN3CCOCC3)cc2)=CC(/C=C/c2ccc(OCCN3CCOCC3)cc2)=[O+]1 [Compound 2]	<0.01	0.024	<0.01	<0.01	496	502	strong aggregation	45	negligible	2.90 10^−5	2.90 × 10^−5	5.41 10^−5	5.41 × 10^−5	~10^−4						
C[N+]1(CCOc2ccc(C=CC3=CC(C=Cc4ccc(OCC[N+]5(C)CCOCC5)cc4)=[O+][B-](F)(F)O3)cc2)CCOCC1 [Compound 3]	0.026	0.046	0.084	0.057	489	495	negligible	99		20.10 10^−5		6.13 10^−5		~10^−4	≤ 0.1	53	could be ecotoxic at concentrations of 10 µM and 100 µM			
Curcumin [reference compound]			0.098	0.116	430	436	strong aggregation			9.99 10^−5		8.31 10^−5					reveals ecotoxicity only at concentrations of 100 µM and 10 µM	0.04–0.1	0	99
